Tests used:
Type in all cases: in vivo
[1] = system: VERPE: Veronica persica; assay: Post-emergence herbicidal efficacy at 80 g/ha, VERPE; conditions: visual rating about 3 weeks after treatment vs untreated controls
Description: (§1) Seeds of monocotyledonous and dicotyledonous weeds and crop plants were placed in sandy loam in plastic or organic planting pots, covered with soil and cultivated in a greenhouse under controlled growth conditions. 2 to 3 weeks after sowing, the test plants were treated at the one-leaf stage. The compounds of the invention, formulated in the form of wettable powders (WP) or as emulsion concentrates (EC), were then sprayed onto the green parts of the plants as aqueous suspension or emulsion with addition of 0.5% additive at a water application rate of 600 l/ha (converted). After the test plants had been kept in the greenhouse under optimum growth conditions for about 3 weeks, the activity of the preparations was rated visually in comparison to untreated controls. For example, 100% activity=the plants have died, 0% activity=like control plants. Tables B1 to B10 below show the effects of selected compounds of the general formula (I) according to Table 1 on various harmful plants and an application rate corresponding to 80 g/ha, which were obtained by the experimental procedure mentioned above.

[2] = system: AMARE: Amaranthus retroflexus; assay: Post-emergence herbicidal efficacy at 80 g/ha, AMARE; conditions: visual rating about 3 weeks after treatment vs untreated controls
Description: as §1

[3] = system: AMARE: Amaranthus retroflexus; assay: Pre-emergence herbicide efficacy at 80 g/ha, AMARE; conditions: scored visually after about 3 weeks
Source text: (§2) Seeds of monocotyledonous and dicotyledonous weed plants and crop plants were placed in plastic or organic planting pots and covered with soil. The compounds of the invention, formulated in the form of wettable powders (WP) or as emulsion concentrates (EC), were then applied to the surface of the covering soil as aqueous suspension or emulsion with addition of 0.5% additive at a water application rate equivalent to 600 l/ha. After the treatment, the pots were placed in a greenhouse and kept under good growth conditions for the test plants. After about 3 weeks, the efficacy of the preparations was scored visually in comparison with untreated controls as percentages. For example, 100% activity=the plants have died, 0% activity=like control plants. Tables D1 to D12 below show the effects of selected compounds of the general formula (I) according to Table 1 on various harmful plants and an application rate corresponding to 80 g/ha, which were obtained by the experimental procedure mentioned above.

[4] = system: STEME: Stellaria media; assay: Pre-emergence herbicide efficacy at 1280 g/ha, STEME; conditions: visual scoring vs untreated controls
Procedure, shortened: (§3)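 Weed seeds were sown and covered with soil in pots, then treated on the soil surface with formulated compound (WP or EC, 0.5% additive, 600 L/ha water). Visual % damage relative to untreated pots was rated about 3 weeks later under greenhouse conditions, 0% meaning no effect and 100% plant death.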

[5] = system: VERPE: Veronica persica; assay: Post-emergence herbicidal efficacy at 1280 g/ha, VERPE; conditions: visual rating about 3 weeks after treatment vs untreated controls
Procedure, shortened: (§4)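 Plants treated 2–3 weeks post-sowing, one-leaf stage, foliar spray of WP or EC preparations with 0.5% additive at a water rate equivalent to 600 L/ha. Kept under optimum greenhouse conditions ~3 weeks, then scored visually on a 0–100% scale.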

[6] = system: MATIN: Matricaria inodora; assay: Pre-emergence herbicide efficacy at 1280 g/ha, MATIN; conditions: visual scoring after about 3 weeks vs untreated controls
Source text: (§5) Seeds of mono- and dicotyledonous weed plants were placed in plastic pots in sandy loam soil (doubly sown with one species each of mono- or dicotyledonous weed plants per pot) and covered with soil. The compounds of the invention, formulated in the form of wettable powders (WP) or as emulsion concentrates (EC), were then applied to the surface of the covering soil as aqueous suspension or emulsion with addition of 0.5% additive at a water application rate of 600 litres per hectare (converted). After the treatment, the pots were placed in a greenhouse and kept under good growth conditions for the test plants. After about 3 weeks, the efficacy of the preparations was scored visually in comparison with untreated controls as percentages. For example, 100% activity=the plants have died, 0% activity=like control plants. Tables C1 to C12 below show the effects of selected compounds of the general formula (I) according to Table 1 on various harmful plants and at an application rate corresponding to 1280 g/ha, which were obtained by the trial procedure specified above.

[7] = system: KCHSC: Kochia scoparia; assay: Post-emergence herbicidal efficacy at 1280 g/ha, KCHSC; conditions: visual rating about 3 weeks after treatment vs untreated controls
Procedure, shortened: as §4

[8] = system: SETVI: Setaria viridis; assay: Post-emergence herbicidal efficacy at 1280 g/ha, SETVI; conditions: visual rating about 3 weeks after treatment vs untreated controls
Procedure, shortened: as §4

[9] = system: DIGSA: Digitaria sanguinalis; assay: Post-emergence herbicidal efficacy at 1280 g/ha, DIGSA; conditions: rated visually after about 3 weeks vs untreated controls, 100% = plants have died, 0% = like control plants
Description: Seeds of mono- and dicotyledonous weed plants were placed in plastic pots in sandy loam soil (doubly sown with in each case one species of mono- or dicotyledonous weed plants per pot), covered with soil and cultivated in a greenhouse under controlled growth conditions. 2 to 3 weeks after sowing, the test plants were treated at the one-leaf stage. The compounds of the invention, formulated in the form of wettable powders (WP) or as emulsion concentrates (EC), were applied to the green parts of the plants as aqueous suspension or emulsion with addition of 0.5% additive at a water application rate equivalent to 600 litres per hectare. After the test plants had been kept in the greenhouse under optimum growth conditions for about 3 weeks, the activity of the preparations was rated visually in comparison to untreated controls. For example, 100% activity=the plants have died, 0% activity=like control plants. Tables A1 to A12 below show the effects of selected compounds of the general formula (I) according to Table 1 on various harmful plants and at an application rate corresponding to 1280 g/ha, which were obtained by the trial procedure specified above.

[10] = system: ABUTH: Abutilon theophrasti; assay: Post-emergence herbicidal efficacy at 1280 g/ha, ABUTH; conditions: rated visually after about 3 weeks vs untreated controls, 100% = plants have died, 0% = like control plants
Procedure, shortened: as §4

[11] = system: DIGSA: Digitaria sanguinalis; assay: Pre-emergence herbicide efficacy at 1280 g/ha, DIGSA; conditions: visual scoring after about 3 weeks vs untreated controls
Procedure, shortened: as §3

[12] = system: VERPE: Veronica persica; assay: Pre-emergence herbicide efficacy at 1280 g/ha, VERPE; conditions: visual scoring vs untreated controls
Procedure, shortened: as §3

[13] = system: POAAN: Poa annua; assay: Post-emergence herbicidal efficacy at 1280 g/ha, POAAN; conditions: visual rating about 3 weeks after treatment vs untreated controls
Procedure, shortened: as §4

[14] = system: POAAN: Poa annua; assay: Pre-emergence herbicide efficacy at 1280 g/ha, POAAN; conditions: visual scoring after about 3 weeks vs untreated controls
Procedure, shortened: as §3

[15] = system: ECHCG: Echinochloa crus-galli; assay: Pre-emergence herbicide efficacy at 1280 g/ha, ECHCG; conditions: visual scoring after about 3 weeks vs untreated controls
Procedure, shortened: as §3

[16] = system: AMARE: Amaranthus retroflexus; assay: Pre-emergence herbicide efficacy at 1280 g/ha, AMARE; conditions: visual scoring after about 3 weeks vs untreated controls
Procedure, shortened: as §3

[17] = system: LOLRI: Lolium rigidum; assay: Pre-emergence herbicide efficacy at 1280 g/ha, LOLRI; conditions: visual scoring after about 3 weeks vs untreated controls
Source text: as §5

[18] = system: SETVI: Setaria viridis; assay: Pre-emergence herbicide efficacy at 1280 g/ha, SETVI; conditions: visual scoring vs untreated controls
Procedure, shortened: as §3

[19] = system: ABUTH: Abutilon theophrasti; assay: Pre-emergence herbicide efficacy at 1280 g/ha, ABUTH; conditions: visual scoring after about 3 weeks vs untreated controls
Procedure, shortened: as §3

[20] = system: AMARE: Amaranthus retroflexus; assay: Post-emergence herbicidal efficacy at 1280 g/ha, AMARE; conditions: rated visually after about 3 weeks vs untreated controls, 100% = plants have died, 0% = like control plants
Procedure, shortened: as §4

[21] = system: ABUTH: Abutilon theophrasti; assay: Pre-emergence herbicide efficacy at 80 g/ha, ABUTH; conditions: scored visually after about 3 weeks
Source text: as §2

[22] = system: KCHSC: Kochia scoparia; assay: Pre-emergence herbicide efficacy at 1280 g/ha, KCHSC; conditions: visual scoring after about 3 weeks vs untreated controls
Procedure, shortened: as §3

[23] = system: STEME: Stellaria media; assay: Post-emergence herbicidal efficacy at 1280 g/ha, STEME; conditions: visual rating about 3 weeks after treatment vs untreated controls
Procedure, shortened: as §4

[24] = system: ECHCG: Echinochloa crus-galli; assay: Post-emergence herbicidal efficacy at 1280 g/ha, ECHCG; conditions: rated visually after about 3 weeks vs untreated controls, 100% = plants have died, 0% = like control plants
Procedure, shortened: as §4

[25] = system: POLCO; assay: Pre-emergence herbicide efficacy at 80 g/ha, POLCO; conditions: Polygonum convolvulus, scored visually after about 3 weeks
Source text: as §2

[26] = system: DIGSA: Digitaria sanguinalis; assay: Pre-emergence herbicide efficacy at 80 g/ha, DIGSA; conditions: scored visually after about 3 weeks
Source text: as §2

Row | SMILES | Post-emergence efficacy against AMARE [2] [%] | Pre-emergence efficacy against AMARE in % [3] [%] | Pre-emergence efficacy against STEME in % [4] [%] | Post-emergence efficacy against VERPE [5] [%] | Pre-emergence efficacy against MATIN [6] [%] | Post-emergence efficacy against KCHSC [7] [%] | Post-emergence efficacy against SETVI [8] [%] | Post-emergence efficacy at 1280 g/ha against DIGSA in % [9] [%] | Post-emergence efficacy at 1280 g/ha against ABUTH in % [10] [%] | Pre-emergence efficacy against DIGSA [11] [%] | Pre-emergence efficacy against VERPE in % [12] [%] | Post-emergence efficacy against POAAN [13] [%] | Pre-emergence efficacy against POAAN [14] [%] | Pre-emergence efficacy against ECHCG [15] [%] | Pre-emergence efficacy against AMARE [16] [%] | Pre-emergence efficacy against SETVI in % [18] [%] | Pre-emergence efficacy against ABUTH [19] [%] | Post-emergence efficacy at 1280 g/ha against AMARE in % [20] [%] | other results
1 | O=S(=O)(CCCC(F)(F)F)Oc1c(F)cccc1Cc1ncc(Cl)cn1 [Example 1-14] | 95 | 90 |  |  |  |  |  |  |  |  |  |  |  |  |  |  |  |  | Post-emergence efficacy against VERPE [1]: 95%
2 | Fc1ccc(Oc2ccccc2Cc2ncc(Cl)cn2)cc1 [Example 1-29] |  |  | 90 | 100 | 90 | 90 | 90 | 90 | 90 | 100 | 100 | 90 | 100 | 100 | 100 | 100 | 100 | 90 | Pre-emergence efficacy against LOLRI [17]: 100%
3 | Fc1cnc(Oc2cccc(F)c2Cc2ncc(Cl)cn2)nc1 [Example 1-52] | 80 | 100 | 100 | 90 | 100 | 90 |  |  |  | 100 | 90 |  | 100 | 90 | 100 | 100 | 90 | 100 | Pre-emergence efficacy against ABUTH in % [21]: 90%; Pre-emergence efficacy against KCHSC [22]: 100%
4 | Fc1ccc(Cc2ccccc2Oc2ncc(Cl)cn2)nc1 [Example 1-92] |  |  | 100 | 100 | 100 | 100 | 100 | 90 | 90 | 100 | 100 | 100 | 100 | 100 | 100 | 100 | 100 | 100 | Post-emergence efficacy against STEME [23]: 100%; Pre-emergence efficacy against KCHSC [22]: 100%
5 | Fc1ccc(Sc2ccccc2Cc2ncc(F)cn2)cc1 [Example 1-104] |  |  | 100 | 100 | 100 | 100 | 90 | 100 | 100 | 100 | 100 | 100 | 100 | 100 | 100 | 100 | 100 | 100 | Post-emergence efficacy against STEME [23]: 100%; Post-emergence efficacy at 1280 g/ha against ECHCG in % [24]: 100%
6 | Fc1cnc(Cc2cccc(F)c2Oc2ncc(Cl)cn2)nc1 [Example 1-154] | 90 | 100 |  |  |  |  |  |  |  |  |  |  |  |  |  |  |  |  | Pre-emergence efficacy against POLCO in % [25]: 80%
7 | Fc1cnc(Cc2cccc(Cl)c2Oc2ncc(Cl)cn2)nc1 [Example 1-157] | 80 | 100 |  |  |  |  |  |  |  |  |  |  |  |  |  |  |  |  | Pre-emergence efficacy against DIGSA in % [26]: 80%
